Several values for one entry are separate records, joined by “and”; a condition that tells them apart may be missing. Equal entries are not always repeated. Where two headings read alike, the source gives them in different places. Marks after values point to notes of the source that are not given here.
Columns and labels:
[1] = molecular target: T1, DCLK1-FL1Δ D511N (Homo sapiens, UniProt O15075, D511N); test: SPR binding to immobilised DCLK1-FL1Δ D511N (non-phosphorylated); settings: for Kd: 18 °C, DCLK1 FL1Δ D511N immobilised, mean ± SEM
T1 construct: DCLK1-FL1Δ (residues 50-686); 8XHis tag with TEV protease cleavage site (N); made in house; host or cells: Escherichia coli C41(DE3)
T1 sequence (O15075 50-686 D511N): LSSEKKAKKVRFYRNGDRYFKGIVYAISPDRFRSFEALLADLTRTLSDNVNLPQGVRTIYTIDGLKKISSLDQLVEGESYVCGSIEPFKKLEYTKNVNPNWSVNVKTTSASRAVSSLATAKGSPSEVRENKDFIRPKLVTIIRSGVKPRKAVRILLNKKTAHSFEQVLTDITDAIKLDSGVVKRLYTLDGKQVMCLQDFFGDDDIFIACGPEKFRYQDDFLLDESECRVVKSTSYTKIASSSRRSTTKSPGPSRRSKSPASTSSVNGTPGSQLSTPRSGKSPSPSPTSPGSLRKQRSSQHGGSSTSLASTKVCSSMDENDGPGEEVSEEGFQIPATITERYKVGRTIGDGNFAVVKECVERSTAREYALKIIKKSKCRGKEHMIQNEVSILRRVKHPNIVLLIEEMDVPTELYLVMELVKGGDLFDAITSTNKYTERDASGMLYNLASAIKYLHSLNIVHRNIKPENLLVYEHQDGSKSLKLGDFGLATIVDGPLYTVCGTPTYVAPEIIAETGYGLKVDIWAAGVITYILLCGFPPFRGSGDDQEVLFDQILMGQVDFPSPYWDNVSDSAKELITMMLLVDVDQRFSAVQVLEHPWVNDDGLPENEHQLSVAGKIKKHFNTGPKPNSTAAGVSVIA
Description: (§1) SPR studies were carried out on a Biacore 2000 instrument (Cytivia). Proteins were immobilised at 25 °C using standard amine coupling to a CM5 chip (Cytivia) in immobilisation buffer consisting of 10 mM HEPES pH 7.4, 150 mM NaCl, 1 mM TCEP, 0.005% Tween P20, 1% (v/v) DMSO. To the active flow, cells were coupled either DCLK1-FL1Δ D511N or WT to a final density of approximately 7000 RU, followed by surface deactivation with 1 M ethanolamine. For each protein, coupling was performed at a concentration of 2 µM protein in 10 mM sodium acetate buffer pH 4.0, 1% (v/v) DMSO final, in the presence 10 µM of the moderate affinity compound FMF-03-149-01 (IC50 ~400 nM)[28] to help to stabilise the kinase domain during immobilsiation at low pH. A blank immobilisation was performed on the reference flow cell.
(§2) Binding experiments were performed at 18 °C in running buffer consisting of 20 mM HEPES, pH 7.4, 150 mM NaCl, 1 mM tris(2-carboxyethyl)phosphine (TCEP), 0.005% (v/v) Tween-P20, and 2% (v/v) DMSO. Compounds (10 mM stocks in 100% DMSO) were diluted in DMSO to 500 µM (DCLK1-NEG) or 25 µM (all other compounds) then in running buffer (without DMSO) to achieve the starting concentration with a final DMSO concentration of 2% (v/v). Samples were then serially titrated in running buffer containing 2% (v/v) DMSO to prepare each final concentration series (seven-point, three-fold serial dilution, 10 µM−13.7 nM for DCLK1-NEG, or 500−0.68 nM for all other compounds). Solutions were injected in multi-cycle format (in duplicate) without regeneration (contact time 80 s, flow rate 75 μL/min, dissociation time 600 s), with an extra wash (50% DMSO) after each injection.
(§3) Steady-state/kinetic binding data were fitted using the S200 BIAevaluation software (GE Healthcare). Sensorgrams from reference surfaces and blank injections were subtracted from the raw data (double-referencing), followed by solvent correction. Kinetic rate constants (kon and koff values) were obtained by fitting to 1:1 Langmuir binding model. Reported binding data represent mean ± SEM for three or four independent experiments. The dissociative half-life life (t1/2) for each inhibitor complex with DCLK1 was calculated from the fitted dissociation rate constant (koff), according to the equation 1 (t1/2 = ln(2)/koff.)

[2] = molecular target: T2, DCLK1-FL1Δ WT (Homo sapiens, UniProt O15075); test: SPR binding to immobilised DCLK1-FL1Δ WT (phosphorylated); settings: for Kd: SPR, 18 °C, DCLK1 FL1Δ WT immobilised, mean ± SEM
T2 sequence (O15075 50-686 isoform O15075-2): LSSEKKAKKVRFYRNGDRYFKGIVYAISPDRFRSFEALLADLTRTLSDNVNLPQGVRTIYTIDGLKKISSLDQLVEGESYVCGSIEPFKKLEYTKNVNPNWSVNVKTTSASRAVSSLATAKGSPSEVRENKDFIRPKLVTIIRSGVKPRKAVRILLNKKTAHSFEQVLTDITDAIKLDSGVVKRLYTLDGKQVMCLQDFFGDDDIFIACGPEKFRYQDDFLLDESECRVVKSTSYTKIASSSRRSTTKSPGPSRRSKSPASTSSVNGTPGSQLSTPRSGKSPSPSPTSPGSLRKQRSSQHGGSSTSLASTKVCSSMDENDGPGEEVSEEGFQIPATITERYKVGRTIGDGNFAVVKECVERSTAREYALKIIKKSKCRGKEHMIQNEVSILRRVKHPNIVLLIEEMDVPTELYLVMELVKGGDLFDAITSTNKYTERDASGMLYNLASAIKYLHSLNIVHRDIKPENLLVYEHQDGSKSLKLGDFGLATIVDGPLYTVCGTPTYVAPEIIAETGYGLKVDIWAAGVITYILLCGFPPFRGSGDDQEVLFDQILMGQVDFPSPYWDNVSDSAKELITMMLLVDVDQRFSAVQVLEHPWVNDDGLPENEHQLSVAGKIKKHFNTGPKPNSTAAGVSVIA
Description: as §1, §2, §3

[3] = molecular target: T3, DCLK1-KD (residues 372-649) (Homo sapiens, UniProt O15075); test: Thermal shift stability assay, DCLK1-KD; format: binding; settings: compound titration 2.5 to 40 μM
T3 construct: the DCLK1 kinase domain (DCLK1-KD; residues 372-649) by carrying out thermal stability assays; 8XHis tag with TEV protease cleavage site (N); made in house; host or cells: Escherichia coli C41(DE3)
T3 sequence (O15075 372-649 isoform O15075-2): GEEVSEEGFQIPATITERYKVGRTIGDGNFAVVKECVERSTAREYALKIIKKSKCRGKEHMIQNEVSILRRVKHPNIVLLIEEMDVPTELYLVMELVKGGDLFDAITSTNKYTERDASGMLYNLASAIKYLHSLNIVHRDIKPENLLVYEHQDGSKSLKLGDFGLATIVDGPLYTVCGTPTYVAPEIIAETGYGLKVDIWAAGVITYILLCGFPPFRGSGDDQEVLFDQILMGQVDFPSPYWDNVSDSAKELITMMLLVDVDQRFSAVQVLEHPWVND
Description: (§4) DCLK1 proteins were diluted in 150 mM NaCl, 20 mM Tris pH 8.0, 1 mM DTT to […] final concentration and assayed with the appropriate concentration of inhibitor in a total reaction volume of 25 μL. SYPRO Orange (Molecular Probes) was used as a fluorescence probe and detected at 530 nm. The data shown are representative of two independent experiments.

[4] = molecular target: T2, DCLK1-FL1Δ WT; test: Thermal shift stability assay, DCLK1-FL1Δ WT; format: binding; settings: phosphorylated WT, 2.5-40 μM
Description: as §4

[5] = molecular target: DCLK1-KD; parameters: method as in PMID 32251410; settings: read-out: KD by ITC; cited from earlier work
[6] = read-out: koff, kinetic fitting

## COc1cc(N2CCN(C)CC2)ccc1Nc1ncc2c(n1)N(C)c1ccccc1C(=O)N2CC(F)(F)F [DCLK1-IN-1]
[1]
  kon, kinetic fitting: 5.1 ± 0.3 1/Ms (x 10^5)
[1]; SPR
  off-rate faster relative to FMF-03-055-01 or XMD8-85: ~ 2 fold
  on-rate slower relative to FMF-03-055-01 or XMD8-85: ~ 2 fold
[1]; SPR KD, DCLK1-FL1Δ D511N
  affinity weaker than FMF-03-055-01 or XMD8-85: 4−5 fold
[1]; SPR, read-out: KD, kinetic fitting (1:1 binding model)
  Kd: 53 nM
[1]; SPR, read-out: KD, steady state fitting
  Kd: 70 ± 4 nM
[1]; discussion statement
  reduction in DCLK1 affinity compared to FMF-03-055-1: five-fold reduction
[1]; [6]
  koff: 0.027 ± 0.001 s⁻¹
[1]; read-out: kon (Fig. 5c)
  kon: 510000 ± 30000 M⁻¹ s⁻¹
[2]
  kon, kinetic fitting: 6 ± 2 1/Ms (x 10^5)
[2]; read-out: KD, kinetic fitting (1:1 binding model)
  Kd: 83 ± 22 nM
[2]; read-out: KD, steady state fitting
  Kd: 145 ± 35 nM
[2]; [6]
  koff: 0.04 ± 0.01 s⁻¹
[3]
  binding by shift in melting temperature (ΔTm): bind DCLK1-KD
[4]
  melting temperature change versus control compound DCLK1-NEG: increased
[5]
  Kd: 55 nM and 109 nM

Reference: publication PMC8452690, “Structural basis for small molecule targeting of Doublecortin Like Kinase 1 with DCLK1-IN-1” (Communications Biology, 2021)
